Entries after “also recorded” stand apart in the source; their conditions may differ.
How the values were obtained:
WT adipocytes [1] = experiment: Glucose and lactate in spent media (YSI), adipocytes differentiated with heparin; assay type: cell-based, mouse; details: heparin 100 μg/ml during differentiation; spent media day 6
Protocol: (§1) Cells were seeded on a 24-well plate at a density of 30,000 cells/cm^2. Cells were allowed to grow to confluence for 48 hours. At this point (Day 0), the media were removed, cells were washed with PBS, and differentiation media with or without heparin (100 μg/ml) were added. Differentiation media consisted of 0.1 μM dexamethasone, 450 μM 3-isobutyl-1-methylxanthine, 2 μM insulin, and 1 μM rosiglitazone in DMEM supplemented with 10% FBS. On Day 3 of differentiation, cells were washed with PBS and treated with insulin media, which consisted of 2 μM insulin, and 1 μM rosiglitazone in DMEM with 10% FBS. The cellular cholesterol and triglyceride content was determined after lysing cells in 0.1M NaOH. Total plasma cholesterol and plasma triglyceride levels (Sekisui Diagnostics) and protein levels (BCA protein assay) were determined using commercially available kits.
MEFs are differentiated to day 6 into adipocytes in a 24 well plate, and on day six (6) 500 μL of media is collected from each well in an Eppendorf tube and immediately frozen in liquid nitrogen. […] Then, the filtrate is analyzed using a YSl 2900, where the sample is loaded into two wells of a 96 well plate, 200 μL media per well. The samples are then analyzed for lactate and glucose concentration.

Wnt5a = target: T1, Wnt5a (Homo sapiens, UniProt P41221); experiment: Wnt binding to HS-mimetics via ELISA (Wnt5a); details: immobilized Wnt5a, biotinylated glycopolymer or heparin
T1 sequence (P41221 62-380): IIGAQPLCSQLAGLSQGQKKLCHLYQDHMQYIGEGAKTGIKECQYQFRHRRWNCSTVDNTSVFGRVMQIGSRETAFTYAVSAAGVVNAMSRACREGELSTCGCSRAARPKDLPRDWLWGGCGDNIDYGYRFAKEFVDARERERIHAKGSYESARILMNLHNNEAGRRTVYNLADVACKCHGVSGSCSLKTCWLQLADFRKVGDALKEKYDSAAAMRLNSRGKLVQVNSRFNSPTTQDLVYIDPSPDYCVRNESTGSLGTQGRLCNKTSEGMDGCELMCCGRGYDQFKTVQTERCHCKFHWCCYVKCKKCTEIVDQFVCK
Protocol: (§2) Wnt5a and Wnt10b proteins (10 nM solution in 1% (w/v) BSA/DPBS) were immobilized on 96-well tissue culture treated plates overnight at 4° C. The plates were washed twice with 0.05% (v/v) Tween-20 in DPBS and blocked with 1% (w/v) BSA/DPBS for 6 hours at room temperature. Biotinylated HS-mimetic glycopolymers GP or heparin were added to the wells at increasing concentrations in 1% (w/v) BSA/DPBS. After 1 hour incubation, the wells were washed three times with 0.05% Tween-20 in DPBS. Streptavidin-HRP (1:1000 in 1% BSA/DPBS) was added for 45 min at ambient temperature. The wells were again washed three times in 0.05% Tween-20 in DPBS, followed by treatment with 100 μL of TMB substrate for 2-5 min before quenching with 100 μL of 2N sulfuric acid. Absorbance (450 nm) was measured using a Molecular Devices SpectraMax plate reader.

Wnt10b = Wnt10b (Homo sapiens, UniProt O00744); experiment: Wnt binding to HS-mimetics via ELISA (Wnt10b); details: immobilized Wnt10b, biotinylated glycopolymer or heparin
Sequence of Wnt10b (O00744 29-389, species assumed): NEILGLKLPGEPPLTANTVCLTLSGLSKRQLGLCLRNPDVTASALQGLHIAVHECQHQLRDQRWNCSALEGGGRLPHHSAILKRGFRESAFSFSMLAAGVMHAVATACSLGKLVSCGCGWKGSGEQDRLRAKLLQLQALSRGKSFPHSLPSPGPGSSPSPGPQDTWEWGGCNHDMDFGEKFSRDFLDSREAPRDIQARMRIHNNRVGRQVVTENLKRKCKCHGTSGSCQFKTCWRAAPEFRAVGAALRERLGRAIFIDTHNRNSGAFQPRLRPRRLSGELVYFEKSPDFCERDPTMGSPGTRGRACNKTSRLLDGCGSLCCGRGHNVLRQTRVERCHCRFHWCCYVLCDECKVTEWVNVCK
Protocol: as §2

Ndst1−/− adipocytes = experiment: 3[H]-2-deoxy-glucose uptake in Ndst1−/− MEF-derived adipocytes; assay type: cell-based, mouse; details: for glucose clearance in differentiated adipocytes: Ndst1−/−, Wnt inhibitor treatment during the first 3 days of adipogenesis
Protocol: Cells were seeded on a 24-well plate at a density of 30,000 cells/cm^2. Cells were allowed to grow to confluence for 48 hours. At this point (Day 0), the media were removed, cells were washed with PBS, and differentiation media with or without heparin (100 μg/ml) were added. […] On Day 3 of differentiation, cells were washed with PBS and treated with insulin media, which consisted of 2 μM insulin, and 1 μM rosiglitazone in DMEM with 10% FBS. The cellular cholesterol and triglyceride content was determined after lysing cells in 0.1M NaOH. Total plasma cholesterol and plasma triglyceride levels (Sekisui Diagnostics) and protein levels (BCA protein assay) were determined using commercially available kits. Cells are washed twice with PBS and placed into DMEM with 2 mg/mL BSA for two hours. […] The insulin solution is then removed and the cells are washed twice with transport solution before radioactive transport solution is added, which consists of 0.25 μCi/well of 3[H]-2-deoxy-glucose and 0.025 mM 2-deoxy-glucose. After a 10-minute incubation in the radioactive transport solution, it is removed and the, the glucose uptake is halted by addition of ice cold PBS. The cold PBS is removed and each well is washed twice with PBS. Then, lysis buffer consisting of 0.1 M NaOH and 0.1% w/v sodium dodecyl sulfate, is added to each well. The radioactive lysate was transferred to a scintillation vial containing 5 mL of Ultima Gold liquid scintillation fluid and analyzed using a liquid Scintillation counter. Cells were differentiated for 6 days using the standard adipogenic differentiation protocol described above. Each day on Days 0-3, the cells were washed with PBS and incubated with 200 μL solution of DMEM containing GPs at the indicated concentrations added for 1 hour at 37° C. After this time, the media were removed, the cells were washed with PBS, and fresh differentiation media were added. On Day 6, the adipocytes were subjected to the ^3[H]-2-deoxy-glucose uptake assay and the spent media were analyzed for glucose and lactate content as described above.

[2] = test system: Primary adipocytes derived from murine subcutaneous white adipose tissue (sWAT) stromal vascular cells; experiment: Glucose uptake in primary adipocytes from sWAT stromal vascular cells; assay type: cell-based; details: co-incubated with heparin during adipogenesis
Protocol: Around 1 g subcutaneous WAT from 8- to 14-week-old, male or female mice was dissected, washed, minced, and digested in 1 ml DMEM containing 0.25 U/ml collagenase D (Sigma) at 37° C. with constant agitation at 200 rpm for 25-35 min. To stop the digestion, complete DMEM including 10% FBS and 1% P/S was added to the digestion mixture. Then the cells were filtered through a 100 μm cell strainer. After centrifugation at 200×g for 10 min, the floating adipocyte fraction (AF) was collected for protein isolation, while the pellet containing stromal vascular fraction (SVF) was resuspended in fresh complete medium and seeded on a 10-cm cell culture dish. At a confluency of ˜80%, cells were seeded on 6- and 12-well plates and grown to confluency for differentiation. Differentiation was induced by using complete DMEM/F12 media supplemented with 1 μM dexamethasone, 0.5 mM isobutylmethylxanthine (IBMX), 5 μg/ml insulin, and 1 μM rosiglitazone. Three days after induction, medium was changed to complete DMEM/F12 supplemented with 5 μg/ml insulin for two days, afterwards cells were maintained in complete DMEM/F12 medium. […]
Cells are washed twice with PBS and placed into DMEM with 2 mg/mL BSA for two hours. […] The radioactive lysate was transferred to a scintillation vial containing 5 mL of Ultima Gold liquid scintillation fluid and analyzed using a liquid Scintillation counter.

WT adipocytes [3] = experiment: 3[H]-2-deoxy-glucose uptake in WT MEF-derived adipocytes; assay type: cell-based, mouse; details: for glucose clearance in differentiated adipocytes: WT, Wnt inhibitor treatment during the first 3 days of adipogenesis
Protocol: as §1, with “Differentiation media consisted of 0.1 μM dexamethasone, 450 μM 3-isobutyl-1-methylxanthine, 2 μM insulin, and 1 μM rosiglitazone in DMEM supplemented with 10% FBS.” left out
Cells are washed twice with PBS and placed into DMEM with 2 mg/mL BSA for two hours. […] The insulin solution is then removed and the cells are washed twice with transport solution before radioactive transport solution is added, which consists of 0.25 μCi/well of 3[H]-2-deoxy-glucose and 0.025 mM 2-deoxy-glucose. After a 10-minute incubation in the radioactive transport solution, it is removed and the, the glucose uptake is halted by addition of ice cold PBS. The cold PBS is removed and each well is washed twice with PBS. Then, lysis buffer consisting of 0.1 M NaOH and 0.1% w/v sodium dodecyl sulfate, is added to each well. The radioactive lysate was transferred to a scintillation vial containing 5 mL of Ultima Gold liquid scintillation fluid and analyzed using a liquid Scintillation counter.
Cells were differentiated for 6 days using the standard adipogenic differentiation protocol described above. Each day on Days 0-3, the cells were washed with PBS and incubated with 200 μL solution of DMEM containing GPs at the indicated concentrations added for 1 hour at 37° C. After this time, the media were removed, the cells were washed with PBS, and fresh differentiation media were added. On Day 6, the adipocytes were subjected to the ^3[H]-2-deoxy-glucose uptake assay and the spent media were analyzed for glucose and lactate content as described above.

lipoprotein lipase (LPL) = target: T2, lipoprotein lipase (LPL) (Bos taurus, UniProt P11151); experiment: Lipoprotein lipase (LPL) binding to adipocytes; assay type: cell-based, Bovine; details: exogenous heparin 100 μg/ml
T2 construct: gift of Gunilla Olivecrona, Umea University
T2 sequence (P11151 29-478): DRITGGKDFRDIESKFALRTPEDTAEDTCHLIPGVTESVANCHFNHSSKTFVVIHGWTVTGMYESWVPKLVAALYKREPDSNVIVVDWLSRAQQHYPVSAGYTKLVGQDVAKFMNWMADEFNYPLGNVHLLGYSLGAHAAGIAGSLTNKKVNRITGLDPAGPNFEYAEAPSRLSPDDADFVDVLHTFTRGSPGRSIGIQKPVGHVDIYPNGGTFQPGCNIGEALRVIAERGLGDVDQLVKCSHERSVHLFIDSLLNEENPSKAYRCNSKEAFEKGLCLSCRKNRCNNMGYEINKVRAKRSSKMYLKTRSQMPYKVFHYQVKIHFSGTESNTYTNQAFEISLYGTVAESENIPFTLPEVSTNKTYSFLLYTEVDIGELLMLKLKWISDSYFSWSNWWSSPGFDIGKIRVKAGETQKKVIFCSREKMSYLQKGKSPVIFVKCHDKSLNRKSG
Protocol: Bovine LPL generously provided by Gunilla Olivecrona (Department of Biomedical Sciences, Umea University, Umea Sweden)^42. Enzyme activity was determined using ^3H radiolabeled substrate as previously described^43. Molar ratio of biotin to LPL was determined in a HABA displacement assay (Pierce Biotin Quantitation Kit).
LPL binding assays were performed similar to as previously described. Cells were harvested using Accutase cell detachment solution (Millipore) and washed twice with PBS. Cells were incubated for 15 min at 37° C. in serum free media in the absence or presence of 5 mU/ml each of recombinant heparin lyases 1, 11, and 111. Treated and untreated cells were washed twice with PBS, chilled on ice for 20 min and incubated with 50 nM biotinylated LPL in 1% BSA supplemented PBS at 4° C. for 1 hour. Following the incubation, cells were washed twice in ice-cold PBS and incubated with 0.4 μg/mL Phycoerythrin-Cy5 conjugated Streptavidin in 1% BSA supplemented PBS at 4° C. A set of cells was exposed only to Phycoerythrin-Cy5 conjugated Streptavidin and was used as background control. Cells were washed twice with PBS and analyzed by flow cytometry.

WT adipocytes [4] = experiment: [9,10-3H(N)]-Palmitate (FFA) uptake in adipocytes; assay type: cell-based, mouse; details: chemical inhibition of HS (heparin 100 μg/ml)

EC50 (Wnt5a) [µM]	EC50 (Wnt10b) [µM]	binding of lipoprotein lipase (LPL) (lipoprotein lipase (LPL))	Molecule	glucose levels in the culture medium (WT adipocytes [1])	lactate production (WT adipocytes [1])	3[H]-2-deoxy-glucose uptake (Ndst1−/− adipocytes; Ndst1−/− MEFs treated 1 hour at 37° C. on day 0 to 3, differentiated adipocytes day 6)	effect of exogenous heparin on glucose uptake (Ndst1−/− adipocytes; Ndst1−/− cells treated with exogenous heparin)	glucose uptake [2]	reduction of glucose uptake (WT adipocytes [3]; WT cells treated with exogenous heparin (100 μg/ml) during differentiation, basal) [%]	differential in glucose uptake versus WT after insulin stimulation (WT adipocytes [3]; WT cells with heparin, insulin stimulated) [%]	glucose uptake at day 6 (WT adipocytes [3]; heparin 100 μg/ml from start, cells treated up to day 3 and beyond)	glucose uptake, acute treatment of mature adipocytes (WT adipocytes [3]; heparin 100 μg/ml simultaneously with 3[H]-2-deoxy-glucose administration, WT and Ndst1−/−)	glucose uptake at day 6 (WT adipocytes [3]; heparin added after day 4 of differentiation)	glucose uptake potential relative to untreated WT adipocytes (WT adipocytes [3]; soluble heparin 100 μg/ml)	FFA uptake (WT adipocytes [4])	glucose clearance in differentiated adipocytes (Ndst1−/− adipocytes)	glucose clearance in differentiated adipocytes (WT adipocytes [3])	toxicity to WT adipocytes (WT adipocytes [3]; 10 nM)
0.0282	0.0301	reduced binding	heparin	high glucose levels remaining	decreased lactate production	had no effect; also recorded: no effect on cellular glucose uptake	did not have an additive effect on glucose uptake	reduced glucose uptake	45	−44	significantly reduced glucose uptake	unaltered glucose uptake	can no longer impact glucose uptake	reduces glucose uptake potential	did not negatively affect FFA uptake	–	–	–
–	–	–	Oc1nc(-c2ccc(C(F)(F)F)cc2)nc2c1CSCC2 [XAV-939]	–	–	–	–	–	–	–	–	–	–	–	–	enhanced glucose clearance	enhanced glucose clearance	–
–	–	–	Cc1cc(-c2ccc(CC(=O)Nc3ccc(-c4cccnc4)cc3)cc2)ccn1 [Wnt-C59]	–	–	–	–	–	–	–	–	–	–	–	–	enhanced glucose clearance capacity	no effect on cellular glucose clearance	toxic

Source: US20240293443A1, “HEPARAN SULFATE MIMETICS TO IMPROVE GLUCOSE CLEARANCE” (The Regents of the University of California, priority 2021, published 2024)
